According to US12187758B2 (ROME Therapeutics, Inc., priority 2022, dated 2025):

Assays:
[1] = tested on: interferon-stimulated gene (ISG) response; assay: B6/JGpt-Trex1em1Cd1194/Gpt mouse model (ISG score); type: in vivo; details: B6/JGpt-Trex1em1Cd1194/Gpt mice, 100 mg/kg p.o. daily for 5 days
Method: Exemplary compounds were tested for the ability to alter the interferon-stimulated gene (ISG) response in a B6/JGpt-Trex1em1Cd1194/Gpt mouse model. Assay procedures and results are described below.
Nine 8-10 week old B6/JGpt-Trex1em1Cd1194/Gpt mice were acclimated to the lab for at least 5 days. Compound 2 was prepared daily in a 20% PEG400 (pH 3.5) solution for p.o. administration. Compound 2 was administered for 5 days.
(§1) Compound 2 was administered daily from Day 1 to Day 5. All mice were euthanized 1 hour after the last dose administration on Day 5. Heart and skin were harvested and snap frozen in liquid nitrogen, and plasma (EDTA) was collected for bioanalysis. Total RNA was isolated and ISG score for each sample was determined as in Part IIIa of Example 108.
Fifteen 6-8 week old B6/JGpt-Trex1em1Cd1194/Gpt mice were acclimated to the lab for at least 5 days. Compound 67 was prepared daily in a 20% PEG400 (pH 3.5) solution for p.o. administration. […] was administered for 5 days.
as §1, with “67” for “2”

human PBMC = assay: Decitabine-stimulated human PBMC assay; type: cell-based; details: PBMCs, 5 days; for IFN-β production: anti-CD3/anti-CD28, decitabine 10 μM, FIGS. 3A and 3B
Method: EasySep buffer (32 mL, […] Technologies, cat. #20144) was used to dilute 8 mL of LRSC buffy coat (from fresh Leukopak) with gentle mixing. The diluted buffy coat (20 mL) was transferred into each of two SepMate 50 tubes, and the tubes were filled with 15 mL of Lyphoprep ([…], cat. #07851) density gradient. The SepMate tubes were then centrifuged at 1200 G for 10 minutes at room temperature with the brake on. The top layer of supernatant was collected in SepMate tubes by quickly pouring it into a new 50 mL conical tube. The PBMCs were washed with EasySep buffer×2 by centrifuging at 300 G for 5 minutes. The cells were resuspended in 30 mL of EasySep and centrifuged at 100 G for 5 minutes with the brake off, and the platelets were removed. The cells were then resuspended in 6 mL of 1×RBC lysis buffer (Invitrogen) and incubated at 37° C. for 5 minutes. 25 mL of EasySep buffer was then mixed into the tube and centrifuged at 300 G for 5 minutes. The cells were resuspended in 10 mL of EasySep buffer and the cells were then counted with Cellometer (AO/PI). The PBMCs were resuspended in RPMI1640 (ThermoFisher)+ 10% FBS (HyClone)+μ/s at 3×10^6/mL. The PBMCs (100 μL, 300 k PBMCs) were then seeded in a 96-well flat bottom microplate (Corning) that had been precoated with 100 μL of anti-CD3 antibody (10 μg/mL in PBS, Biolegend) or PBS at 4° C., one day before the assay was commenced.
To each well the following solutions were added 1) 100 μL of cells (final cell number per well is 3×10^5 cell/well); 2) 25 μL of anti-CD28 antibody at 6× (5 μg/mL final concentration, Biolegend); 3) 25 μL of decitabine at 6× (10 μM final concentration); and 4) Compound in DMSO was dispensed directly into each well with a d300e digital dispenser (Tecan). The final concentration of DMSO for each well was normalized to 0.3%. The plate was incubated at 37° C. without any agitation for 5 days. Samples were collected 120 hours after incubation to determine IFN-β […] levels using a U-PLEX Human IFN-β Assay Sector (5PL) (MSD, cat. #K151VIK-2).
After 5 days, the plate was spun down at 100×G for 5 minutes. Supernatants (100 μL) were collected for interferon R (IFN-0) analysis using the MSD assay noted above, and any residual supernatant was stored at −80° C.

pTBK1 = pTBK1 level with and without UVB exposure (Example 111); type: cell-based; details: varying concentrations of compound, alone or after UVB exposure (FIGS. 4B and 4C)
[2] = tested on: interferon-stimulated gene (ISG) response; assay: In vivo decitabine challenge model in BALB/c mice; details: decitabine i.p. 5 mg/kg, RNAseq
Method: Thirty 9-11 week old BALB/c mice were acclimated to the lab for at least 5 days. Compounds 2, 40 and 67 were prepared in a 20% PEG400 (pH 3.5) solution for p.o. administration, compounds were prepared no more than 30 minutes prior to daily dosing. Decitabine (Sigma) was dissolved in sterile PBS (pH 7.4) and dosed within 30 minutes of preparation of the solution. Doses of both the compound and decitabine were administered once a day, every day from Day 0 to day 4. On Day 0, mice were split into […] of five mice and given their first dose of decitabine (i.p., 5 mg/kg) and compound. Dosing groups were as in the following table (all doses in mg/kg): [table] Decitabine (i.p., 5 mg/kg) and compounds 2, 40 or 67 were administered daily from […] to Day 4. All mice were euthanized 1 hour after the last dose administration on Day 4. Spleen and kidneys were harvested and snap frozen in liquid nitrogen, and plasma (EDTA) was collected for bioanalysis. Total RNA was isolated using the PureLink RNA Mini Kit (ThermoFisher) and prepared for RNAseq using the TruSeq Stranded mRNA platform (Illumina). 50M Stranded reads were collected on an Illumina HiSeq system. Data were analyzed as follows: RNA sequencing reads were aligned to the […] reference genome using the STAR RNA-seq aligner (Dobin et al., 2013). Expression of each transcript was quantified using Salmon (Patro, et al. 2015) TPM values for each transcript. These transcript-level TPM values were aggregated by gene to get gene-level TPM values, and log-transformed these values. Mouse orthologs for each gene in the list of ISG-associated genes in the human genome from Liu et al., 2019 using Ensembl BioMart (Kinsella et al., 2011) were identified. The ISG score for each sample was calculated as the median log-transformed TPM value across all genes in this ISG gene set.

| Structure (SMILES) | ISG score in the heart and skin [1] | IFN-β production (human PBMC) | level of pTBK1 (pTBK1) | change in the ISG Score in the spleen and kidney ([2]; compound 100 mg/kg p.o. daily) | cell viability (human PBMC; decitabine 10 μM) | change in the ISG Score in the spleen and kidney ([2]; compound 30 mg/kg p.o. daily) |
| --- | --- | --- | --- | --- | --- | --- |
| Nc1ccn([C@H]2C[C@H](O)[C@](CO)(CCl)O2)c(=O)n1 [Compound 2, 4-amino-1-((2R,4S,5R)-5-(chloromethyl)-4-hydroxy-5-(hydroxymethyl)tetrahydrofuran-2-yl)pyrimidin-2(1H)-one] | lowers the ISG score | showed inhibition of IFN-β | varies in a dose-dependent fashion | show a change in the ISG Score in the spleen and kidney |  |  |
| Nc1nc(=O)n([C@H]2C[C@H](O)[C@](CO)(CCl)O2)cc1F [Compound 14, 4-amino-1-((2R,4S,5R)-5-(chloromethyl)-4-hydroxy-5-(hydroxymethyl)tetrahydrofuran-2-yl)-5-fluoropyrimidin-2(1H)-one] |  |  | varies in a dose-dependent fashion |  |  |  |
| C#C[C@]1(CO)O[C@@H](n2cnc3c(N)nc(Cl)nc32)C[C@@H]1O [Compound 25] |  | activated production of IFN-β |  |  |  |  |
| Nc1ccn([C@@H]2O[C@@](CO)(CCl)[C@@H](O)[C@@H]2F)c(=O)n1 [Compound 40, 4-amino-1-((2R,3S,4R,5R)-5-(chloromethyl)-3-fluoro-4-hydroxy-5-(hydroxymethyl)tetrahydrofuran-2-yl)pyrimidin-2(1H)-one] |  | showed inhibition of IFN-β | varies in a dose-dependent fashion | show a change in the ISG Score in the spleen and kidney | some cell viability losses at higher concentrations |  |
| CC[C@]1(CO)O[C@@H](n2ccc(N)nc2=O)C[C@@H]1O [Compound 44, 4-amino-1-((2R,4S,5R)-5-ethyl-4-hydroxy-5-(hydroxymethyl)tetrahydrofuran-2-yl)pyrimidin-2(1H)-one] |  |  | varies in a dose-dependent fashion |  |  |  |
| Nc1nc(=O)n([C@@H]2O[C@@](CO)(CCl)[C@@H](O)[C@@H]2F)cc1F [Compound 67, 4-amino-1-[(2R,3S,4R,5R)-5-(chloromethyl)-3-fluoro-4-hydroxy-5-(hydroxymethyl)oxolan-2-yl]-5-fluoropyrimidin-2-one] | lowers the ISG score |  |  | show a change in the ISG Score in the spleen and kidney |  | show a change in the ISG Score in the spleen and kidney |
